{"source": "paper PMC6739136", "about": "(Neuropeptides, 2019)", "system": "urinary bladder pressure, anesthetized minipigs", "experiment": "Cystometry", "format": "in vivo, minipig (Gottingen, Sinclair)", "details": "GR 159897 1 mg/kg IV, 15 min prior to LMN-NKA, N=2, anesthetized minipigs, DT-063"}
{"smiles": "COC1(C[S@@+]([O-])c2ccccc2)CCN(CCc2c[nH]c3ccc(F)cc23)CC1", "note": "[GR 159897, 5-Fluoro-3-[2-[4-methoxy-4-[[(R)-phenylsulphinyl]methyl]-1-piperidinyl]ethyl]-1H-indole]", "values": [{"measurement": "effect on increase in bladder pressure induced by 100 μg/kg SC of LMN-NKA", "value": "blocked"}]}
